Source: PubChem BioAssay (NCI)
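Five concentrations, 48 hours, 96-well plates. TGI denotes the concentration required for complete inhibition of growth.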 Where a SMILES comes first, the peptide text is derived from it. The star is where a group is joined. Boc = CC(C)(C)OC(=O)*; OSu = O=C1CCC(=O)N1O*

Columns and labels:
Test in all cases: DTP human tumour cell line panel, 48 h
NCI-H23 lung = test system: NCI-H23 lung
T-47D breast = test system: T-47D breast
DU-145 prostate = test system: DU-145 prostate
UACC-257 melanoma = test system: UACC-257 melanoma
HCC-2998 colon = test system: HCC-2998 colon
SNB-75 CNS = test system: SNB-75 CNS
MCF7 breast = test system: MCF7 breast
NCI-H460 lung = test system: NCI-H460 lung
COLO 205 colon = test system: COLO 205 colon
MALME-3M melanoma = test system: MALME-3M melanoma
UACC-62 melanoma = test system: UACC-62 melanoma
UO-31 renal = test system: UO-31 renal
HCT-15 colon = test system: HCT-15 colon
NCI-H226 lung = test system: NCI-H226 lung
SF-295 CNS = test system: SF-295 CNS
EKVX NSCLC = test system: EKVX NSCLC
TK-10 renal = test system: TK-10 renal
MDA-N = test system: MDA-N
OVCAR-8 ovarian = test system: OVCAR-8 ovarian
OVCAR-3 ovarian = test system: OVCAR-3 ovarian
M14 melanoma = test system: M14 melanoma
OVCAR-5 ovarian = test system: OVCAR-5 ovarian
HT29 colon = test system: HT29 colon
HCT-116 colon = test system: HCT-116 colon
MDA-MB-231 breast = test system: MDA-MB-231 breast
MDA-MB-435 = test system: MDA-MB-435
NCI/ADR-RES ovarian = test system: NCI/ADR-RES ovarian
SR leukemia = test system: SR leukemia
NCI-H522 lung = test system: NCI-H522 lung
IGROV1 ovarian = test system: IGROV1 ovarian
BT-549 breast = test system: BT-549 breast
786-0 renal = test system: 786-0 renal
SN12C renal = test system: SN12C renal
SW-620 colon = test system: SW-620 colon
SK-MEL-2 melanoma = test system: SK-MEL-2 melanoma
HOP-62 NSCLC = test system: HOP-62 NSCLC
SK-OV-3 ovarian = test system: SK-OV-3 ovarian
RPMI-8226 leukemia = test system: RPMI-8226 leukemia
K-562 leukemia = test system: K-562 leukemia
CAKI-1 renal = test system: CAKI-1 renal
SK-MEL-28 melanoma = test system: SK-MEL-28 melanoma
U251 CNS = test system: U251 CNS
SF-268 CNS = test system: SF-268 CNS
RXF 393 renal = test system: RXF 393 renal
MOLT-4 leukemia = test system: MOLT-4 leukemia
SK-MEL-5 melanoma = test system: SK-MEL-5 melanoma
KM12 colon = test system: KM12 colon
HOP-92 NSCLC = test system: HOP-92 NSCLC
A549 NSCLC = test system: A549 NSCLC
PC-3 prostate = test system: PC-3 prostate
SNB-19 CNS = test system: SNB-19 CNS
ACHN renal = test system: ACHN renal
SF-539 CNS = test system: SF-539 CNS
HS 578T breast = test system: HS 578T breast
HL-60(TB) leukemia = test system: HL-60(TB) leukemia
LOX IMVI melanoma = test system: LOX IMVI melanoma
OVCAR-4 ovarian = test system: OVCAR-4 ovarian

Measured: TGI

CC(NC(=O)C(NC(=O)OC(C)(C)C)C(C)C)C(=O)NCC(=O)ON1C(=O)CCC1=O (stereo not drawn) (Boc-Val-Ala-Gly-OSu; configuration not given here)
not listed: HS 578T breast | HL-60(TB) leukemia | LOX IMVI melanoma | OVCAR-4 ovarian
> 100 µM: all other assays above

Cc1nc(C)c(C(=O)NNC(N)=S)cc1C(=O)NNC(N)=S
not listed: SNB-75 CNS | MALME-3M melanoma | SR leukemia
> 100 µM: all other assays above
